Values of other authors as cited in patent US20230218596A1 (MEREO BIOPHARMA 4 LIMITED, priority 2020, published 2023).
Where two headings read alike, the source gives them in different places.

Tests used:
bronchiectasis = bronchiectasis patients, 4-week duration; cited from earlier work
[1] = tested on: NE from other species, including mice; conditions: cited from earlier work
NE [2] = target: T1, NE (Homo sapiens, UniProt P08246); conditions: cell-associated assay; cited from earlier work
NE [3] = target: T1, NE; conditions: whole-blood assay; cited from earlier work
ARDS = conditions: experimental models of ARDS; cited from earlier work
human NE = target: T2, human NE (Homo sapiens, UniProt P08246); conditions: cited from earlier work
T2 sequence (P08246 30-267): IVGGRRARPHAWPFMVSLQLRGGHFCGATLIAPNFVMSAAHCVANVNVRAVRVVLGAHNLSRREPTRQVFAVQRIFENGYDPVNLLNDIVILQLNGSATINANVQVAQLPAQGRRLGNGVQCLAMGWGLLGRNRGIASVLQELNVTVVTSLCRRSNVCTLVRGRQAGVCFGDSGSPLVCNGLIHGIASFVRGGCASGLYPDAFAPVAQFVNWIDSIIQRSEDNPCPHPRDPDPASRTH

cystic fibrosis = cystic fibrosis patients, 4-week duration; cited from earlier work

SMILES: Cc1c(-c2ccnn2C)cc(C(=O)NCc2ccc(S(C)(=O)=O)cn2)c(=O)n1-c1cccc(C(F)(F)F)c1 [Alvelestat, N-{[5-(methanesulfonyl)pyridin-2-yl]methyl}-6-methyl-5-(1-methyl-1H-pyrazol-5-yl)-2-oxo-1-[3-(trifluoromethyl)phenyl]-1,2-dihydropyridine-3-carboxamide]
- lung function and inflammation (bronchiectasis): clinically significant improvement
- crossover potency for NE from other species [1]: good crossover potency
- IC50 (NE [2]): 0.048 µM
- IC50 (NE [3]): 0.044 µM
- lung inflammation and injury (ARDS): protected the lung from inflammation and injury
- reversibility of inhibition (human NE): rapidly reversible
- biomarkers of elastase activity and inflammation (cystic fibrosis): significant decrease
